Assay: xn = mol fraction of the nth substance listed
Details: 101 kPa, Liquid; for mass density: Vibrating tube method

NCCO.O=CO [2-hydroxyethylammonium formate] + O
Details	mass density, 315.65 K [kg/m3]	mass density, 318.15 K [kg/m3]	mass density, 320.65 K [kg/m3]	mass density, 323.15 K [kg/m3]	speed of sound, 315.65 K [m/s]	speed of sound, 318.15 K [m/s]	speed of sound, 320.65 K [m/s]	speed of sound, 323.15 K [m/s]
x2 = 0	–	1162.29	1160.51	1158.73	1666.7	1660.8	1654.8	1648.9
x2 = 0.047	–	1163.18	1161.55	1159.94	1703.3	1698.3	1693.3	1688.4
x2 = 0.108	–	1161.88	1160.25	1158.62	1705.2	1700.2	1695.3	1690.5
x2 = 0.199	–	1158.96	1157.34	1155.72	1707.2	1702.4	1697.5	1692.7
x2 = 0.311	–	1154.16	1152.53	1150.91	1709.4	1704.7	1699.9	1695.2
x2 = 0.4	–	1149.34	1147.7	1146.05	1709.8	1705.2	1700.6	1696
x2 = 0.492	1144.56	1142.94	1141.31	1139.69	1710	1705.6	1701.2	1696.8
x2 = 0.601	1134.13	1132.52	1130.9	1129.29	1707.6	1703.6	1699.5	1695.4
x2 = 0.699	1120.4	1118.82	1117.22	1115.62	1703.7	1700.2	1696.5	1692.8
x2 = 0.8	1098.86	1097.33	1095.78	1094.23	1687.8	1685.1	1682.4	1679.5
x2 = 0.9	1062.35	1060.95	1059.54	1058.12	1647.5	1646.7	1645.7	1644.6
x2 = 0.95	1033.42	1032.17	1030.89	1029.58	1604.9	1605.8	1606.4	1606.8

— the NIST ThermoML archive (doi:10.1016/j.jct.2007.05.011)
